Measurements from US20130158112A1, “COMPOSITIONS AND METHODS FOR INHIBITING BETA AMYLOID SECRETION” (priority 2011, published 2013).
Like-named read-outs stand apart in the source and are kept apart here.

How the values were obtained:
Aβ secretion = assay: Secreted total Aβ ELISA in conditioned media of H4βAPP695 wt cells; assay type: cell-based, human; conditions: for inhibition at 10 µM / inhibition at 30 µM: Homo sapiens, 24 h, H4βAPP695 wt cells; for inhibition at 30 µM: read-out: Total Aβ (% decrease) 30 μM Mean; for Aβ secretion inhibiting activity (structure activity summary): in words
Protocol: H4βAPP695 wt cells, a human […] cell line stably transfected with a wtβAPP695 expression vector construct under the control of a CMV promoter (kindly provided by Dr. Chris Eckman from Mayo Clinic, Florida) were cultured as previously described. Twenty-four hours before drug treatment, the media was replaced with serum-free media. Cells were then incubated with drugs (dissolved in DMSO) or vehicle for 24 h for collection of conditioned media and cell lysates. For the PKC inhibitors experiment, three inhibitors were treated 30 min prior to drug challenge. Primary cortical neurons were prepared from embryonic day 18 APP and presenilin 1 (APPswe, PSEN1dE9) transgenic mice on the C57BL/6 genetic background (Jackson Laboratories, strain no. 5864) as previously described. THLE-3 human hepatoma cells (from ATCC) were plated in 24-well plates that were precoated with 10 μg/mL bovine serum albumin, 10 μg/mL fibronectin, and 30 μg/mL bovine type I collagen. The cells were grown in BEGM media (Clonetics) until confluent and treated with drugs at 20 μM for 24 h. This conditioned media was harvested, diluted 1:1 in serum-free medium, and incubated with H4βAPP695 wt cells for 24 h prior to analysis of secreted Aβ, which was compared to the effect of 10 μM drug treatments without prior incubation with the THLE-3 cells. Caco-2 cells (ATCC) were plated in 12-well plates with Transwell inserts (Costar) at 70000 cells per well and grown for 21 days. The media volume of the apical and basal chambers was 0.5 and 1.5 mL, respectively. Transepithelial resistance was measured in each well and found to be >160 Ω/cm^2. Drugs at 40 μM and 20 μg/mL of lucifer yellow were added in serum-free medium to the apical chamber. Four hours later, the basal chamber media was harvested and used to measure lucifer yellow fluorescence to confirm monolayer integrity as well as for treatment of H4βAPP695 wt cells for 24 h prior to analysis of secreted Aβ, which was compared to the effect of direct addition of 10 μM of the corresponding drug.

H4βAPP695 wt cells = assay: Cytotoxicity by total cell protein content (BCA) of H4βAPP695 wt cells; conditions: cytotoxicity
Protocol: Cells were washed with cold phosphate buffered saline (PBS) and lysed on ice by vigorous mixing over 15 min with RIPA buffer containing 50 mM Tris-HCl (pH 8.0), 150 mM sodium chloride, 1% NP-40, 0.5% sodium deoxycholate, and 0.1% SDS, supplemented with 10% protease inhibitor cocktail and 2 mM PMSF. After centrifugation at 14000 g for 30 min to remove nuclei and other debris at 4° C., the protein content of the supernatants was measured using the BCA assay kit (Pierce).
The initial screen was performed in 96-well plates with drugs distributed by the hanging drop method yielding estimated drug levels of 10-25 μM. Total Aβ levels in the 24 h conditioned media were measured by a sandwich ELISA assay, and cytotoxicity was assessed by methylene blue staining of the cells in the wells, as previously described.

[1] = read-out: Total Aβ (% decrease) 10 μM Mean
[2] = relative to vehicle treated control cells, read-out: % β Decrease

melting point	SMILES	inhibition at 10 µM (Aβ secretion; [1])	inhibition at 30 µM (Aβ secretion)	Aβ secretion inhibiting activity (structure activity summary) (Aβ secretion)	Cell protein (% decrease) 10 μM Mean (H4βAPP695 wt cells)	Cell protein (% decrease) 30 μM Mean (H4βAPP695 wt cells)	inhibition at 10 µM (Aβ secretion; [2])
	COc1cccc(C[S+]([O-])CCNC(=O)c2c(Cl)cccc2Cl)c1 (stereo not drawn) [Compound 32, 2,6-dichloro-N-[2-(3-methoxy-phenylmethanesulfinyl)-ethyl]-benzamide]	-13.6%	-15.8%	No tested substitutions in the linker region were well tolerated	1.6%	9.2%	
156 to 158 °C	O=C(NCCS(=O)(=O)Cc1cccc(Cl)c1)c1c(Cl)cccc1Cl [Compound 66, 2,6-Dichloro-N-[2-(3-chloro-phenylmethanesulfonyl)-ethyl]-benzamide]	8.9%	9.3%	No tested substitutions in the linker region were well tolerated	−2.2%	−3.8%	
61 to 62 °C	O=C(NCCSCc1cccc(O)c1)c1c(O)cccc1O [Compound 35, 2,6-Dihydroxy-N-[2-(3-hydroxy-benzylsulfanyl)-ethyl]-benzamide]	-22.5%	-25.2%	not well tolerated	10.5%	14.3%	
	Oc1c(Cl)cc(Cl)cc1/C=N/CCSCc1ccccc1Cl [Compound 23]						5.3%
	O=C(NCCCCNC(=O)c1ccccc1F)c1ccccc1F [Compound 25]						0.2%
41 to 43 °C	COc1cccc(CSCCNC(=O)c2c(OC)cccc2OC)c1 [Compound 34, 2,6-Dimethoxy-N-[2-(3-methoxy-benzylsulfanyl)-ethyl]-benzamide]	6.2%	-0.6%	not well tolerated	0.5%	3.9%	
42 to 43 °C	O=C(NC1CC1)c1cccc(CSCCNC(=O)c2c(Cl)cccc2Cl)c1 [Compound 68, 2,6-Dichloro-N-[2-(3-cyclopropylcarbamoyl-benzylsulfanyl)-ethyl]-benzamide]	1.9%	11%	did not yield good activity	0%	−1%	
58 to 59 °C	COc1cccc(CSCCNC(=O)c2c(Cl)cccc2OC)c1 [Compound 42, 2-Chloro-6-methoxy-N-[2-(3-methoxy-benzylsulfanyl)-ethyl]-benzamide]	-2.9%	-4.7%		1.9%	9.3%	
	Cc1cccc(C)c1C(=O)NCCSCc1cccc(Cl)c1 [Compound 75, N-[2-(3-chloro-benzylsulfanyl)-ethyl]-2,6-dimethyl-benzamide]	29.5%	51.6%	not well tolerated	0.9%	−9.4%	
	O=C(NCCSCc1ccc(F)cc1)c1c(F)cccc1Cl [Compound 22]						27.3%
104 to 106 °C	O=C(NCCSCc1ccc(Cl)cc1)c1c(Cl)cccc1Cl [Compound 77, 2,6-Dichloro-N-[2-(4-chloro-benzylsulfanyl)-ethyl]-benzamide]	21.8%	36.5%	loss of activity	−6.4%	3%	
	N=C(NO)c1cccc(CSCCNC(=O)c2c(Cl)cccc2Cl)c1 [Compound 39, 2,6-Dichloro-N-(2-[3-(N-hydroxycarbamimidoyl)-benzylsulfanyl]-ethyl)-benzamide]	-1.5%	1.6%	did not yield good activity	9.2%	5.9%	
55 to 57 °C	O=C(NCCSCc1cccc(Cl)c1)c1c(Br)cccc1Br [Compound 54, 2,6-Dibromo-N-[2-(3-chloro-benzylsulfanyl)-ethyl]-benzamide]		83.4%	maintained activity	6.7%	20.8%	
	COCCCNC(=O)c1c(Cl)cccc1Cl [Compound 8]						6.9%
	O=C(NCCSCc1ccc(Cl)cc1)c1ccc(Cl)cc1Cl [Compound 2]						5.3%
	NC(=O)c1c(Cl)cccc1CSCC(=O)c1c(Cl)cccc1Cl [Compound 61, 2-Chloro-6-((2-(2,6-dichlorophenyl)-2-oxoethylthio)methyl)benzamide]	44.7%	49.7%	could be tolerated	2.5%	−5.6%	
	O=C(NCCSCc1ccccc1)c1ccccc1 [Compound 64, N-(2-Benzylsulfanyl-ethyl)-benzamide]	-5.7%	5.5%		0.7%	−4.1%	
	O=C(Cc1c(Cl)cccc1Cl)NCCSCc1cccc(Cl)c1 [Compound 78, N-[2-(3-chloro-benzylsulfanyl)-ethyl]-2-(2,6-dichloro-phenyl)-acetamide]	6.7%	13.5%	No tested substitutions in the linker region were well tolerated	−1.3%	−.07%	
	O=C(NCCSCc1ccc(Cl)c(Cl)c1)c1ccc(Cl)cc1Cl [Compound 6]						4.3%
	Clc1cccc(CSCCNCc2c(Cl)cccc2Cl)c1 [Compound 57, [2-(3-Chloro-benzylsulfanyl)-ethyl]-(2,6-dichloro-benzyl)-amine]	45.2%	45.6%	No tested substitutions in the linker region were well tolerated	−3.6%	6.6%	
	COc1cccc(CS(=O)(=O)CCNC(=O)c2c(Cl)cccc2Cl)c1 [Compound 30, 2,6-dichloro-N-[2-(3-methoxy-phenylmethanesulfonyl)-ethyl]-benzamide]	5.3%	4.9%	No tested substitutions in the linker region were well tolerated	1.2%	8.9%	
	O=C(NCCSCc1cccc(OCCOCCO)c1)c1c(Cl)cccc1Cl [Compound 70, 2,6-Dichloro-N-(2-(3-[2-(2-hydroxy-ethoxy)-ethoxy]-benzylsulfanyl)-ethyl)-benzamide]	17.4%	24.3%	did not yield good activity	−7.3%	6.1%	
	O=C(NCCS(=O)(=O)Cc1ccc(F)cc1)c1c(F)cccc1Cl [Compound 24]						39.2%
	O=C(NCCCCNC(=O)c1ccccc1Br)c1ccccc1Br [Compound 4]						7.9%
	O=C(NCCSCc1ccc(Cl)cc1)c1ccccc1Cl [Compound 17]						-12%
	O=C(NCCSCc1ccc(Cl)c(Cl)c1)c1ccccc1Cl [Compound 5]						0.7%
	O=C(NCCSCc1cccc(Cl)c1)c1ccccc1Cl [Compound 3]						4.7%
	O=C(NCCSCc1ccccc1Cl)c1ccccc1Cl [Compound 16]						4%
	O=C(NCCNC(=O)c1c(Cl)cccc1Cl)c1c(Cl)cccc1Cl [Compound 13]						7.6%
	O=C(NCCSCc1cccc(O)c1O)c1c(Cl)cccc1Cl [Compound 58, 2,6-Dichloro-N-[2-(2,3-dihydroxy-benzylsulfanyl)-ethyl]-benzamide]	-4.3%	33.1%	lost activity	−4.8%	14%	
